≈ marks a conversion by molar mass, not a printed value. Where two headings read alike, the source gives them in different places.
How the values were obtained:
[1] = tested on: Escherichia coli culture; assay: Optical third-derivative MIC method, culture in broth; type: cell-based; details: EC/03D177; for MIC: Escherichia coli
Excerpt: The method of FIG. 1 starts at a time equal to zero, t0 (1). Preferably, said t0 is the moment a pure bacteria culture is finished being prepared. Alternatively, said t0 is the moment all wells contain both said bacteria culture and said antimicrobial drug. After the starting of the experiment each well is periodically illuminated with a light source and the intensity of the transmitted light is detected with a photodetector (2). Preferably, each well is illuminated and the intensity of the transmitted light is detected every hour (2). More preferably, each well is illuminated and the intensity of the transmitted light is detected every 5 to 15 min. After a predetermined time length, preferably after 4 hours, a first, a second and a third derivative of said measured intensity is calculated (3) in a first and a second time frame for each well. Preferably, said second time frame is the last measured time frame after the test has been running for said predetermined time length, and said first time frame is the time frame preceding the second time frame. More preferably, said first time frame is between two and three hours and said second time frame is between three and four hours. After the calculation of said derivatives, said first derivative in said second time frame of said reference well is compared to a growth speed threshold value (4). Preferably, said growth speed threshold value is 0.166 (4). If said first derivative in said second time frame of said reference well is larger than or equal to said growth speed threshold value said bacteria culture is classified as Type I (4). If said first derivative in said second time frame of said reference well is smaller than said growth speed threshold value said bacteria culture is classified as Type II (4). Subsequently, independent of the classification of the bacteria culture according to the two types, the method comprises the following steps which are performed for each well or for all wells except said reference well. Both said first and said second time frames are evaluated to see if there is an inflection point present in the second derivative in said first and/or said second time frame (5).
If said first and/or said second time frame comprise said inflection point than said third derivative in said first time frame is compared to said third derivative in said second time frame (6). If said third derivative in said first time frame is larger than said third derivative in said second time frame, then said first time frame and said second time frame are selected as a first and second time frame to be used in a minimal inhibitory concentration determination method (10). If said third derivative in said first time frame is not larger than said third derivative in said second time frame, then said well is illuminated again after a certain time period, preferably an hour, more preferably 5 to 15 min after said predetermined time length said, with a light source and the intensity of the transmitted light is detected with a photodetector forming a new time frame subsequent to said second time frame (7). A third derivative, and possibly also a first and/or a second derivative, is calculated in said new time frame (7). Further, in step (7) a new first time frame is put equal to said second time frame and a new second time frame to equal to said new time frame. Subsequently, said third derivative in said new first time frame is compared to said third derivative in said new second time frame (8). If said derivative in said new first time frame is larger than said third derivative in said new second time frame, then said new first time frame and said new second time frame are selected as a first and second time frame to be used in a minimal inhibitory concentration determination method (10). […]

[2] = tested on: Escherichia coli culture; assay: Broth microdilution (BMD); type: cell-based; details: culture EC/03D177
[3] = tested on: Escherichia coli culture; assay: E-test; type: cell-based; details: culture EC/03D177
[4] = tested on: E-coli; details: tabulated, known value, cited from earlier work

CC1(C)S[C@@H]2[C@H](NC(=O)[C@H](N)c3ccccc3)C(=O)N2[C@H]1C(=O)O [ampicillin]
heteroresistance determined by the method ([1]; FIG. 5D, overall conclusion): not heteroresistant
HR? at MIC (25%) ([1]; ratio MIC T2/T1): yes (If the ratio of the MIC value in the second time frame over the MIC value in the first time frame is higher than or equal to 8 then the ratio is labelled to be heteroresistant)
HR? at MIC (40%) ([1]; ratio MIC T2/T1): no (If the ratio of the MIC value in the second time frame over the MIC value in the first time frame is lower than or equal to 4 then the ratio is labelled not to be heteroresistant)
HR? at MIC (60%) ([1]; ratio MIC T2/T1): no (If the ratio of the MIC value in the second time frame over the MIC value in the first time frame is lower than or equal to 4 then the ratio is labelled not to be heteroresistant)
HR? at MIC (75%) ([1]; ratio MIC T2/T1): no (If the ratio of the MIC value in the second time frame over the MIC value in the first time frame is lower than or equal to 4 then the ratio is labelled not to be heteroresistant)
MIC ([1]; 3 h-4 h, read-out: MIC (25%) T1): 2 µg/mL (≈ 5.72 µM)
MIC ([1]; 3 h-4 h, read-out: MIC (40%) T1): 2 µg/mL (≈ 5.72 µM)
MIC ([1]; 3 h-4 h, read-out: MIC (60%) T1): 2 µg/mL (≈ 5.72 µM)
MIC ([1]; 3 h-4 h, read-out: MIC (75%) T1): 2 µg/mL (≈ 5.72 µM)
MIC ([1]; 4 h-5 h, read-out: MIC (25%) T2): 8 µg/mL (≈ 22.9 µM)
MIC ([1]; 4 h-5 h, read-out: MIC (40%) T2): 2 µg/mL (≈ 5.72 µM)
MIC ([1]; 4 h-5 h, read-out: MIC (60%) T2): 2 µg/mL (≈ 5.72 µM)
MIC ([1]; 4 h-5 h, read-out: MIC (75%) T2): 2 µg/mL (≈ 5.72 µM)
MIC ([1]; FIG. 5D, overall conclusion, read-out: MIC value determined by the method): 2 µg/mL (≈ 5.72 µM)
MIC [2]: 4 µg/mL (≈ 11.4 µM)
MIC ([3]; Escherichia coli): 2 µg/mL (≈ 5.72 µM)
HR? (E-test) [3]: no
MIC for Ampiciline ([4]; Colony ID. 03D161): 4 µg/mL
MIC for Ampiciline ([4]; Colony ID. 03D177): 2 µg/mL
MIC for Ampiciline ([4]; Colony ID. 03D179): > 32 µg/mL

Reference: patent US20220389477A1, “METHOD FOR EVALUATING ANTIBIOTIC SUSCEPTIBILITY” (Vrije Universiteit Brussel, priority 2019, published 2022)
